Article PMC7178174, “Residues in Transmembrane Segments of the P2X4 Receptor Contribute to Channel Function and Ethanol Sensitivity” (International Journal of Molecular Sciences, 2020)
Substitutions are numbered along the chain they refer to.

How the values were obtained:
Type in all cases: cell-based
[1] = biological target: T1, rat P2X4R (P2X4 receptor) (Rattus norvegicus, UniProt P51577); assay: two-electrode voltage clamp, Xenopus oocytes, ATP-gated current
T1 construct: gene P2rx4; full-length cDNA in pcDNA3, cRNA expressed in Xenopus laevis oocytes; homomeric trimer; ~60 kDa band
T1 sequence (P51577 1-388): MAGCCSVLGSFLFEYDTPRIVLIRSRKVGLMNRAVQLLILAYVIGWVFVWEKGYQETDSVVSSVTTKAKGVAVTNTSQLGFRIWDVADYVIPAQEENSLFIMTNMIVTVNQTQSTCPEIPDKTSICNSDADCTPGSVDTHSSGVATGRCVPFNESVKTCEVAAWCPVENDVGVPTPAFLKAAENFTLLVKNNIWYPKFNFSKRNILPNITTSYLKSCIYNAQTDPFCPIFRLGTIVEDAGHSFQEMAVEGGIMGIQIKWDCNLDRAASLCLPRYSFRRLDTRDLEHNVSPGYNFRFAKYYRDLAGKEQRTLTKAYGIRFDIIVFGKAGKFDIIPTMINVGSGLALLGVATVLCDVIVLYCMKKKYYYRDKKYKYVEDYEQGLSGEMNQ
Excerpt: (§1) two-electrode voltage clamp, Xenopus oocytes, ATP-gated current on rat P2X4R (P2X4 receptor)

[2] = biological target: T2, rat P2X4R (P2X4 receptor) (Rattus norvegicus, UniProt P51577, A34W); assay: as above
T2 construct: gene P2rx4; full-length cDNA in pcDNA3, cRNA expressed in Xenopus laevis oocytes; homomeric trimer; ~60 kDa band
T2 sequence (P51577 1-388 A34W): T1 sequence (P51577 1-388) with A34W
Excerpt: as §1

[3] = biological target: T3, rat P2X4R (P2X4 receptor) (Rattus norvegicus, UniProt P51577, F48A); assay: as above
T3 construct: gene P2rx4; full-length cDNA in pcDNA3, cRNA expressed in Xenopus laevis oocytes; homomeric trimer; ~60 kDa band
T3 sequence (P51577 1-388 F48A): T1 sequence (P51577 1-388) with F48A
Excerpt: as §1

[4] = biological target: T4, rat P2X4R (P2X4 receptor) (Rattus norvegicus, UniProt P51577, L37A); assay: as above
T4 construct: gene P2rx4; full-length cDNA in pcDNA3, cRNA expressed in Xenopus laevis oocytes; homomeric trimer; ~60 kDa band
T4 sequence (P51577 1-388 L37A): T1 sequence (P51577 1-388) with L37A
Excerpt: as §1

[5] = biological target: T5, rat P2X4R (P2X4 receptor) (Rattus norvegicus, UniProt P51577, R33A); assay: as above
T5 construct: gene P2rx4; full-length cDNA in pcDNA3, cRNA expressed in Xenopus laevis oocytes; homomeric trimer; ~60 kDa band
T5 sequence (P51577 1-388 R33A): T1 sequence (P51577 1-388) with R33A
Excerpt: as §1

[6] = biological target: T6, rat P2X4R (P2X4 receptor) (Rattus norvegicus, UniProt P51577, R33K); assay: as above
T6 construct: gene P2rx4; full-length cDNA in pcDNA3, cRNA expressed in Xenopus laevis oocytes; homomeric trimer; ~60 kDa band
T6 sequence (P51577 1-388 R33K): T1 sequence (P51577 1-388) with R33K
Excerpt: as §1

[7] = biological target: T7, rat P2X4R (P2X4 receptor) (Rattus norvegicus, UniProt P51577, R33L); assay: as above
T7 construct: gene P2rx4; full-length cDNA in pcDNA3, cRNA expressed in Xenopus laevis oocytes; homomeric trimer; ~60 kDa band
T7 sequence (P51577 1-388 R33L): T1 sequence (P51577 1-388) with R33L
Excerpt: as §1

[8] = biological target: T8, rat P2X4R (P2X4 receptor) (Rattus norvegicus, UniProt P51577, R33S); assay: as above
T8 construct: gene P2rx4; full-length cDNA in pcDNA3, cRNA expressed in Xenopus laevis oocytes; homomeric trimer; ~60 kDa band
T8 sequence (P51577 1-388 R33S): T1 sequence (P51577 1-388) with R33S
Excerpt: as §1

[9] = biological target: T9, rat P2X4R (P2X4 receptor) (Rattus norvegicus, UniProt P51577, V49G); assay: as above
T9 construct: gene P2rx4; full-length cDNA in pcDNA3, cRNA expressed in Xenopus laevis oocytes; homomeric trimer; ~60 kDa band
T9 sequence (P51577 1-388 V49G): T1 sequence (P51577 1-388) with V49G
Excerpt: as §1

[10] = biological target: T10, rat P2X4R (P2X4 receptor) (Rattus norvegicus, UniProt P51577, V49L); assay: as above
T10 construct: gene P2rx4; full-length cDNA in pcDNA3, cRNA expressed in Xenopus laevis oocytes; homomeric trimer; ~60 kDa band
T10 sequence (P51577 1-388 V49L): T1 sequence (P51577 1-388) with V49L
Excerpt: as §1

[11] = biological target: T11, rat P2X4R (P2X4 receptor) (Rattus norvegicus, UniProt P51577, W46A); assay: as above
T11 construct: gene P2rx4; full-length cDNA in pcDNA3, cRNA expressed in Xenopus laevis oocytes; homomeric trimer; ~60 kDa band
T11 sequence (P51577 1-388 W46A): T1 sequence (P51577 1-388) with W46A
Excerpt: as §1

[12] = biological target: T1, rat P2X4R (P2X4 receptor); assay: two-electrode voltage clamp, Xenopus oocytes, inhibition of ATP-gated current; details: read-out: % inhibition at 100 mM

Row | EC50 [1] | EC50 [2] | EC50 [3] | EC50 [4] | EC50 [5] | EC50 [6] | EC50 [7] | EC50 [8] | EC50 [9] | EC50 [10] | EC50 [11] | inhibition at 100000 µM [12] | Compound
1 | 5.74 ± 0.45 µM | 6.5 ± 1.02 µM | 3.53 ± 0.73 µM | 8.91 ± 0.84 µM | 7.04 ± 0.51 µM | 6.33 ± 0.93 µM | 5.06 ± 0.7 µM | 4.94 ± 1.09 µM | 9.6 ± 0.9 µM | 10.6 ± 1.3 µM | 3.58 ± 0.57 µM | – | Nc1ncnc2c1ncn2[C@@H]1O[C@H](COP(=O)(O)OP(=O)(O)OP(=O)(O)O)[C@@H](O)[C@H]1O [ATP]
2 | – | – | – | – | – | – | – | – | – | – | – | 44 ± 4% | CCO [ethanol]
